Common to all, as to type: cell-based, Chinese hamster
The test system of test [1] is ASIC3 currents in CHO cells expressing alone ASIC3, but not expressing PAR2. Put plainly: Whole-cell patch clamp, CHO cells expressing ASIC3 alone (no PAR2). As to conditions: 10^−5 M; P > 0.1; n = 10. As for the experimental part: (§1) ASIC3, ASIC1a, ASIC1b, ASIC2b, and PAR2 complementary DNAs (cDNAs) were used for heterologous expression in CHO cells as described previously (Wang et al., 2013). In brief, CHO cells were cultured at 37 °C in a humidified atmosphere of 5% CO2 and […] and passaged twice a week. Transient transfection of CHO cells was performed using HilyMax liposome transfection reagent (Dojindo Laboratories). CHO cells were maintained in F-12 Nutrient Mixture (added 1.176 g of NaHCO3/L medium) supplemented with 10% fetal bovine serum and 1% gluta-MAXTM-1 (100×; Invitrogen). When ASIC3 and PAR2 cDNAs were co-transfected, the ratio was kept at 1:1. All plasmids used contained, in addition to the desired ASIC3 cDNA, the coding sequence for enhanced green fluorescent protein to aid identification of transfected cells. Electrophysiological measurements were performed 24–48 h after transfection.
(§2) Whole-cell patch clamp and voltage clamp recordings were carried out at room temperature (22–25 °C) using a MultiClamp-700B amplifier and Digidata-1440A A/D converter (Axon Instruments, CA, USA). […]
(§3) Drugs purchased from Sigma and used in the experiments include hydrochloric acid, 2-furoyl-LIGRLO-NH2 (a PAR2-activating peptide (PAR2-AP)), trypsin, FSLLRY-NH2, APETx2, and capsazepine. […] The application pipette tips were positioned ∼30 μm away from the recorded neurons. […]
(In general: The patch-clamp technique gives a direct electrical read-out from membranes.)

Test [2] relates to heteromeric ASIC1a+3 channels expressed with PAR2 in CHO cells. Put plainly: Whole-cell patch clamp, heteromeric ASIC1a+3 channels expressed with PAR2 in CHO cells. The settings on record: PAR2-AP 10^−5 M for 1 min; I pH 6.6; ASIC3:other subunit 1:3; n = 8. How it is done:
as §1, §2, §3

Test [3] has as its system ASIC3 currents in CHO cells co-expressing ASIC3 and PAR2. Put plainly: Whole-cell patch clamp of proton-gated currents (I pH 6.6) in CHO cells co-expressing ASIC3 and PAR2. As for the experimental part:
as §1
Whole-cell patch clamp and voltage clamp recordings were carried out at room temperature (22–25 °C) using a MultiClamp-700B amplifier and Digidata-1440A A/D converter (Axon Instruments, CA, USA). Recording pipettes were pulled using a Sutter P-97 puller (Sutter Instruments, CA, USA). The micropipettes were filled with internal solution containing (mM) KCl 140, MgCl2 2.5, HEPES 10, EGTA 11, and ATP 5; its pH was adjusted to 7.2 with KOH, and osmolarity was adjusted to 310 mOsm/L with sucrose. Cells were bathed in an external solution containing (mM) NaCl 150, KCl 5, CaCl2 2.5, MgCl2 2, HEPES 10, D-glucose 10; its osmolarity was adjusted to 330 mOsm/L with sucrose and its pH to 7.4. The resistance of the recording pipette was in the range of 3–6 MΩ. A small patch of membrane underneath the tip of the pipette was aspirated to form a giga seal, and then, a negative pressure was applied to rupture it, thus establishing a whole-cell configuration. The series resistance was compensated for by 70–80%. The adjustment of capacitance compensation was also done before recording the membrane currents. The membrane voltage was maintained at −60 mV in all voltage clamp experiments unless otherwise specified. Current clamp recordings were obtained by switching to current clamp mode after a stable whole-cell configuration was formed in voltage clamp mode. Only cells with a stable resting membrane potential (more negative than −50 mV) were used in the study. Signals were sampled at 10 to 50 kHz and filtered at 2 to 10 kHz, and the data were stored in compatible PC computer for off-online analysis using the pCLAMP 10 acquisition software (Axon Instruments, CA, USA).
Drugs purchased from Sigma and used in the experiments include hydrochloric acid, 2-furoyl-LIGRLO-NH2 (a PAR2-activating peptide (PAR2-AP)), trypsin, FSLLRY-NH2, APETx2, and capsazepine. Different pH values were configured with hydrochloric acid and external solution. All drugs were dissolved daily in the external solution just before use and held in a linear array of fused silica tubes (o.d./i.d. = 500 μm/200 μm) connected to a series of independent reservoirs. The application pipette tips were positioned ∼30 μm away from the recorded neurons. The application of each drug was driven by gravity and controlled by the corresponding valve, and rapid solution exchange could be achieved within about 100 ms by shifting the tubes horizontally with a PC-controlled micromanipulator. Cells were constantly bathed in normal external solution flowing from one tube connected to a larger reservoir between drug applications. In some experiments where GDP-β-S (Sigma), U-73122(Sigma), and GF109203X (RBI) were applied for intracellular dialysis through recording patch pipettes, they were dissolved in the internal solution before use. To ensure that the cell interior was perfused with the dialysis drug, there was at least a 30-min interval between the establishment of whole-cell access and the current measurement. […]

Test [4] has as its system heteromeric ASIC1b+3 channels expressed with PAR2 in CHO cells. Put plainly: Whole-cell patch clamp, heteromeric ASIC1b+3 channels expressed with PAR2 in CHO cells. As to conditions: PAR2-AP 10^−5 M for 1 min; I pH 6.6; ASIC3:other subunit 1:3; n = 8. How it is done: as §1, §2, §3

With 2-furoyl-LIGRLO-NH2 [PAR2-AP], the “effect on I pH 6.6 in ASIC3-transfected CHO cells without PAR2” value in test [1] is listed as “Neither PAR2-AP nor trypsin had an effect”. Moreover, the “increase of peak current of heteromeric ASIC1a+3 channels” value in test [2] came out at 51.6 ± 6.5%. Also, the “maximum effect (potentiation of ASIC3 currents)” value in test [3] (10^−4 M, pre-applied 1 min, I pH 6.6, n = 9) is on record as 66.6 ± 7.5%. The “increase of peak amplitude of I pH 6.6 after pretreatment with agonist alone” value in test [3] (10^−5 M for 1 min, n = 10) came out at 61.6 ± 4.6%. Further, in test [3] (I pH 6.6 for 5 s, PAR2-AP 10^−9–10^−4 M pre-applied 1 min, −60 mV, mean ± SEM of 8 to 10 cells, read-out: EC50 of PAR2-AP for potentiation of peak amplitude of proton-gated (ASIC3) currents), the EC50 (in general, the concentration needed to bring the measured effect to its halfway point) was 290 nM. For the same substance, the “threshold pH value of proton concentration–response curve in presence vs absence of PAR2-AP” value in test [3] (PAR2-AP 10^−5 M) is recorded as “no significant difference”. In addition, in test [3] (PAR2-AP 10^−5 M pre-applied, proton concentration–response curve, 8 to 10 cells), the “increase in the maximal current response to protons” value was 58.7 ± 3.8%. In addition, the “Hill coefficient of proton concentration–response curve in the presence of PAR2-AP” value in test [3] (PAR2-AP 10^−5 M, 2.36 ± 0.13 in its absence, P > 0.1) is 2.28 ± 0.15. In test [3] (PAR2-AP 10^−5 M, 3.58 ± 0.29 without), the “Hill coefficient of steady-state desensitization with PAR2-AP” value is 3.65 ± 0.35. The “pH50 (pH for half-maximal current response) with PAR2-AP pretreatment” value in test [3] (PAR2-AP 10^−5 M, 6.70 ± 0.02 without, P > 0.1) is given as 6.71 ± 0.04. In test [3] (PAR2-AP 10^−5 M, conditioning pH 7.6 to 6.6 for 2 min, then pH 6.0, 7.16 ± 0.01 without, P < 0.05, 6 to 8 cells), the “pH50 for steady-state desensitization in the presence of PAR2-AP” value was found to be 7.05 ± 0.02. Also, the “Hill coefficient of the concentration–response curve for PAR2-AP” value in test [3] (potentiation of I pH 6.6, pre-applied 1 min) is recorded as 0.76. In addition, the “increase of peak current of heteromeric ASIC1b+3 channels” value in test [4] stood at 55.2 ± 5.9%.

(Values after article PMC5534107, “Sensitization of ASIC3 by proteinase-activated receptor 2 signaling contributes to acidosis-induced nociception” (Journal of Neuroinflammation, 2017).)
